Source: US20240390340A1 (INCYTE CORPORATION, priority 2023, published 2024)
Where two headings read alike, the source gives them in different places.

Experiments:
KRAS G12V = KRAS G12V (Homo sapiens, UniProt P01116, G12V); experiment: GDP-GTP exchange assay (bodipy-GDP/GppNHp, SOS1), KRAS G12V; format: biochemical
KRAS G12D = KRAS G12D (Homo sapiens, UniProt P01116, G12D); experiment: GDP-GTP exchange assay (bodipy-GDP/GppNHp, SOS1), KRAS G12D; format: biochemical
[1] = KRAS G12V mutant, value for the most potent isomer quoted for certain compounds, read-out: G12V (KRAS G12V exchange assay IC50)
[2] = bodipy-loaded KRAS G12D 2.5 nM, 4 h pre-incubation, value for the most potent isomer quoted for certain compounds, read-out: G12D (KRAS G12D exchange assay IC50)

KRAS G12D, sequence (P01116 1-188 isoform P01116-2 G12D): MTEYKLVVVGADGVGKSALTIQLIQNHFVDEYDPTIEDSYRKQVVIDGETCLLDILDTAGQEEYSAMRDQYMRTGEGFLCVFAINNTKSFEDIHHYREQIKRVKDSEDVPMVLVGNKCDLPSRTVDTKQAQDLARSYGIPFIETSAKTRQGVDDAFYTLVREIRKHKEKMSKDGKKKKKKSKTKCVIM
KRAS G12V, sequence (P01116 1-188 isoform P01116-2 G12V): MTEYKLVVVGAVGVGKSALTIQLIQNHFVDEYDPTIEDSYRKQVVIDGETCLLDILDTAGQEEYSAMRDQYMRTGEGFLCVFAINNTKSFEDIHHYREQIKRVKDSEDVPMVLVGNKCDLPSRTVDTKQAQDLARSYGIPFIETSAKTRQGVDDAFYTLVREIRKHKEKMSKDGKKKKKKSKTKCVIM

IC50 (KRAS G12V; [1]) [nM]	IC50 (KRAS G12D; [2]) [nM]	IC50 (KRAS G12V; Table H, column G12V, for compounds isolated as several atropisomers/diastereoisomers the value for the most potent isomer is quoted, read-out: KRAS G12V exchange assay IC50) [nM]	IC50 (KRAS G12D; Table H, column G12D, for compounds isolated as several atropisomers/diastereoisomers the value for the most potent isomer is quoted, read-out: KRAS G12D exchange assay IC50) [nM]	SMILES
≤ 100	≤ 100	–	–	Cc1nc2c(F)c(-c3cccc(Cl)c3Cl)c(CCC#N)cc2c2c1cc([C@H]1C[C@H](n3cc(CN4CCOCC4=O)nn3)CN1C(=O)C1CC1)n2[C@H]1[C@H]2CN[C@@H]1C2 [Example 323]
≤ 100	≤ 100	–	–	COC(=O)C1CCC(c2cn([C@H]3C[C@H](c4cc5c(C)nc6c(F)c(-c7cccc(Cl)c7Cl)c(CCC#N)cc6c5n4[C@H]4[C@H]5CN[C@@H]4C5)N(C(=O)C4CC4)C3)nn2)C1 (stereo partly drawn) [Example 391]
≤ 100	≤ 100	–	–	CC(O)c1nc2c(F)c(-c3cccc(Cl)c3Cl)c(CCC#N)cc2c2c1cc([C@H]1C[C@H](OCc3c(F)cccc3F)CN1C(=O)C1(C)CC1)n2[C@H]1[C@H]2CN[C@@H]1C2 (stereo partly drawn) [Example 185]
≤ 100	≤ 100	–	–	Cc1nc2c(F)c(-c3cccc(Cl)c3Cl)c(CCC#N)cc2c2c1cc([C@H]1C[C@H](Oc3cccc(F)c3)CN1C(=O)C1CC1)n2[C@H]1[C@H]2CN[C@@H]1C2 [Example 122]
≤ 100	≤ 100	–	–	N#CCCc1cc2c(nc(C3=CCOCC3)c3cc([C@H]4C[C@H](OCc5c(F)cccc5F)CN4C(=O)C4CC4)n([C@H]4[C@H]5CN[C@@H]4C5)c32)c(F)c1-c1cccc(Cl)c1Cl [Example 218]
≤ 100	≤ 100	–	–	Cc1nc2c(F)c(-c3cccc(Cl)c3Cl)c(CCC#N)cc2c2c1cc([C@H]1C[C@H](n3cc(C(C)(C)C(F)F)nn3)CN1C(=O)C1CC1)n2[C@H]1C2CNC1C2 (stereo partly drawn) [Example 225]
≤ 100	≤ 100	–	–	Cc1nc2c(F)c(-c3cccc(Cl)c3Cl)c(CCC#N)cc2c2c1cc([C@H]1C[C@H](n3nc(CC#N)nc3C)CN1C(=O)C1CC1)n2[C@H]1[C@H]2CN[C@@H]1C2 [Example 351]
≤ 100	≤ 100	–	–	CC(O)c1nc2c(F)c(-c3cccc(Cl)c3Cl)c(CCC#N)cc2c2c1cc([C@H]1C[C@H](OCc3ccc(F)cc3C#N)CN1C(=O)C1CC1)n2[C@H]1[C@H]2CN[C@@H]1C2 (stereo partly drawn) [Example 178]
≤ 100	≤ 100	–	–	Cc1nc2c(F)c(-c3cccc(Cl)c3Cl)c(CCC#N)cc2c2c1cc([C@H]1C[C@H](Oc3ccc(C#N)nc3)CN1C(=O)C1CC1)n2[C@H]1[C@H]2CN[C@@H]1C2 [Example 290]
≤ 100	≤ 100	–	–	Cc1nc2c(F)c(-c3cccc(Cl)c3Cl)c(CCC#N)cc2c2c1cc([C@H]1C[C@H](OC[C@@H]3CCCC[C@H]3C#N)CN1C(=O)C1CC1)n2[C@H]1[C@H]2CN[C@@H]1C2 [Example 285]
≤ 100	≤ 100	–	–	COc1cc(C#N)ccc1O[C@H]1C[C@H](c2cc3c(C)nc4c(F)c(-c5cccc(Cl)c5Cl)c(CCC#N)cc4c3n2[C@H]2[C@H]3CN[C@@H]2C3)N(C(=O)C2CC2)C1 [Example 292]
≤ 100	≤ 100	–	–	Cc1nc2c(F)c(-c3cccc(Cl)c3Cl)c(CCC#N)cc2c2c1cc([C@H]1C[C@H](Oc3ccnc4c3CCO4)CN1C(=O)C1CC1)n2[C@H]1[C@H]2CN[C@@H]1C2 [Example 329]
≤ 100	≤ 100	–	–	Cc1nc2c(F)c(-c3cccc(Cl)c3Cl)c(CCC#N)cc2c2c1cc([C@H]1C[C@H](OCc3ccccc3C(F)(F)F)CN1C(=O)C1CC1)n2[C@H]1[C@H]2CN[C@@H]1C2 [Example 117]
≤ 100	≤ 100	–	–	COC(=O)N1C[C@@H](Oc2ccccn2)C[C@@H]1c1cc2c(-c3ccc(CN(C)C)c(F)c3F)nc3c(F)c(-c4cccc(Cl)c4Cl)c(CCC#N)cc3c2n1[C@H]1[C@H]2CN[C@@H]1C2 [Example 148]
≤ 100	100 to 1000	–	–	Cc1cccc(C(F)(F)F)c1CO[C@H]1C[C@H](c2cc3c(C)nc4c(F)c(-c5cccc(Cl)c5Cl)c(CCC#N)cc4c3n2[C@H]2[C@H]3CN[C@@H]2C3)N(C(=O)C2CC2)C1 [Example 124]
≤ 100	≤ 100	–	–	Cc1nc2c(F)c(-c3cccc(Cl)c3Cl)c(CCC#N)cc2c2c1cc([C@H]1C[C@H](Oc3cccc(C(=O)N4CCCC4)c3)CN1C(=O)C1CC1)n2[C@H]1[C@H]2CN[C@@H]1C2 [Example 223]
≤ 100	≤ 100	–	–	COC(=O)c1cccc(O[C@H]2C[C@H](c3cc4c(C)nc5c(F)c(-c6cccc(Cl)c6Cl)c(CCC#N)cc5c4n3[C@H]3[C@H]4CN[C@@H]3C4)N(C(=O)C3CC3)C2)c1 [Example 189]
≤ 100	≤ 100	–	–	Cc1nc2c(F)c(-c3cccc(Cl)c3Cl)c(CCC#N)cc2c2c1cc([C@H]1C[C@H](OCC3(C#N)CCC3)CN1C(=O)C1CC1)n2[C@H]1[C@H]2CN[C@@H]1C2 [Example 339]
≤ 100	≤ 100	–	–	Cc1nc2c(F)c(-c3cccc(Cl)c3Cl)c(CCC#N)cc2c2c1cc([C@H]1C[C@H](n3ccnn3)CN1C(=O)C1CC1)n2[C@H]1[C@H]2CN[C@@H]1C2 [Example 342]
–	–	≤ 100	≤ 100	Cc1nc2c(F)c(-c3cccc(Cl)c3Cl)c(CCC#N)cc2c2c1cc([C@H]1C[C@H](OCC3CCOCC3)CN1C(=O)C1CC1)n2[C@H]1[C@H]2CN[C@@H]1C2 [Example 29]
≤ 100	≤ 100	–	–	Cc1nc2c(F)c(-c3cccc(Cl)c3Cl)c(CCC#N)cc2c2c1cc([C@H]1C[C@H](Oc3cn(C)nc3C(F)F)CN1C(=O)C1CC1)n2[C@H]1[C@H]2CN[C@@H]1C2 [Example 299]
≤ 100	≤ 100	–	–	Cc1nc2c(F)c(-c3cccc(Cl)c3Cl)c(CCC#N)cc2c2c1cc([C@H]1C[C@H](Oc3ccn(C)c3C(F)(F)F)CN1C(=O)C1CC1)n2[C@H]1[C@H]2CN[C@@H]1C2 [Example 407]
≤ 100	≤ 100	–	–	Cc1nc2c(F)c(-c3cccc(Cl)c3Cl)c(CCC#N)cc2c2c1cc([C@H]1C[C@H](n3cc(C4(C(C)(F)F)CC4)nn3)CN1C(=O)C1CC1)n2[C@H]1[C@H]2CN[C@@H]1C2 [Example 382]
≤ 100	≤ 100	–	–	COc1cc(F)cc(O[C@H]2C[C@H](c3cc4c(C)nc5c(F)c(-c6cccc(Cl)c6Cl)c(CCC#N)cc5c4n3[C@H]3[C@H]4CN[C@@H]3C4)N(C(=O)C3CC3)C2)c1 [Example 190]
≤ 100	≤ 100	–	–	Cc1nc2c(F)c(-c3cccc(Cl)c3Cl)c(CCC#N)cc2c2c1cc([C@H]1C[C@H](n3cc(C4(C)CC4)nn3)CN1C(=O)C1CC1)n2[C@H]1[C@H]2CN[C@@H]1C2 [Example 224]
≤ 100	≤ 100	–	–	CCc1cnn([C@H]2C[C@H](c3cc4c(C)nc5c(F)c(-c6cccc(Cl)c6Cl)c(CCC#N)cc5c4n3[C@H]3[C@H]4CN[C@@H]3C4)N(C(=O)C3CC3)C2)c1 [Example 280]
≤ 100	≤ 100	–	–	Cc1nc2c(F)c(-c3cccc(Cl)c3Cl)c(CCC#N)cc2c2c1cc([C@H]1C[C@H](OCc3cnn(C(F)(F)F)c3)CN1C(=O)C1CC1)n2[C@H]1[C@H]2CN[C@@H]1C2 [Example 311]
≤ 100	≤ 100	–	–	Cc1nc2cc(O[C@H]3C[C@H](c4cc5c(C)nc6c(F)c(-c7cccc(Cl)c7Cl)c(CCC#N)cc6c5n4[C@H]4[C@H]5CN[C@@H]4C5)N(C(=O)C4CC4)C3)ccc2s1 [Example 132]
≤ 100	≤ 100	–	–	COc1ccnc(O[C@H]2C[C@H](c3cc4c(C)nc5c(F)c(-c6cccc(Cl)c6Cl)c(CCC#N)cc5c4n3[C@H]3[C@H]4CN[C@@H]3C4)N(C(=O)C3CC3)C2)n1 [Example 247]

SMILES	IC50 (KRAS G12V; [1]) [nM]	IC50 (KRAS G12D; [2]) [nM]	IC50 (KRAS G12V; Table H, column G12V, for compounds isolated as several atropisomers/diastereoisomers the value for the most potent isomer is quoted, read-out: KRAS G12V exchange assay IC50) [nM]	IC50 (KRAS G12D; Table H, column G12D, for compounds isolated as several atropisomers/diastereoisomers the value for the most potent isomer is quoted, read-out: KRAS G12D exchange assay IC50) [nM]
Cc1nc2c(F)c(-c3cccc(Cl)c3Cl)c(CCC#N)cc2c2c1cc([C@H]1C[C@H](Oc3ccn(C)n3)CN1C(=O)C1CC1)n2[C@H]1[C@H]2CN[C@@H]1C2 [Example 170]	≤ 100	≤ 100	–	–
